We go through twelve compounds from patent US10870662B2, “Alpha-amino pateamine A derivatives and methods for treating chronic lymphocytic leukemia” (The Texas A&M University System, priority 2015, dated 2020).

Where two headings read alike, the source gives them in different places.

The test system of series [1] is chronic lymphocytic leukemia (CLL) cells. In words: CLL cell killing assay (annexin V / propidium iodide flow cytometry, 24 h). The format is cell-based, human. To be noted: primary CLL cells. The protocol:
Biological Activity of 2-Amino Pateamine Derivatives Peripheral blood from the CLL patients were collected in heparin vacutainer tubes and centrifuged at 1500 rpm for 15 min to separate the plasma. The plasma (upper layer) was removed and saved for cell culture. The lower layer was diluted with phosphate-buffered saline (PBS), and the mononuclear cells were isolated by Ficoll density-gradient centrifugation. The isolated CLL cells were cultured at 1×10^7 cells/mL in RPMI 1640 medium containing 10% of fetal bovine serum, 10% autologous plasma, or 50% autologous plasma. Cell death in CLL lymphocytes was evaluated by flow cytometry analysis using annexin V and propidium iodide (PI) double staining. After incubation with increasing concentrations of PatA analogs for 24 hours, CLL cells (1×10^6 cells) were stained in 100 μL binding buffer with 5 μL annexin-Cy5, and incubated for 15 minutes in dark at room temperature. After staining, 300 μL binding buffer with 5 μL of 50 μg/mL propidium iodide were added to each tube. Samples were analyzed immediately by flow cytometer. Cells stained positive for either annexin V or PI were considered dead cells. The IC50 values of CLL killing were determined by non-linear fitting of the survival curve by the GraphPad Prism software.
In general terms: A flow cytometer gives signals particle by particle.

Series [2] has as its system P388 murine leukemia cells. To be noted: read-out: IC50, cytotoxic activity against P388 murine leukemia cells; cited from earlier work.
Setting [3] is: RPMI 1640 with 10% autologous (human) plasma, read-out: IC50 CLL Assay, 10% plasma.
Where [4] appears, read: RPMI 1640 with 10% fetal bovine serum, read-out: IC50 CLL Assay, 10% FBS.
Where [5] appears, read: CLL cell, RPMI 1640 with 10% autologous (human) plasma, read-out: IC50 CLL Assay, 10% plasma.
Setting [6] is: Homo sapiens, CLL cell, RPMI 1640 with 10% fetal bovine serum, read-out: IC50 CLL Assay, 10% FBS.
The mark [7] stands for this setting: CLL cell, RPMI 1640 with 50% autologous (human) plasma, read-out: IC50 CLL Assay, 50% plasma.

One may read the IC50 as the point on the concentration scale where inhibition reaches its midpoint.

For the compound “1,1,1-Trichloro-2-methylpropan-2-yl ((1^2Z,3S,6Z,8E,11S,14R)-3-((1E,3E,5E)-7-(dimethylamino)-2,5-dimethylhepta-1,3,5-trien-1-yl)-9,11-dimethyl-5,13-dioxo-4,12-dioxa-1 (2,4)-thiazol acycloheptadecaphane-6,8-dien-14-yl)carbamate [MZ756]”, the values for the IC50 in series [1] (setting [3]) and in series [1] (setting [4]) were 5610 nM and 1890 nM, respectively.

For `C/C(Br)=C\[C@@H]1Cc2nc(cs2)CCC[C@H](NC(=O)OC(C)(C)C)C(=O)O[C@@H](C)C/C(C)=C/C=C\C(=O)O1` [MZ554, tert-Butyl-((1^2Z,3S,6Z,8E,11S,14S)-3-((E)-2-bromoprop-1-en-1-yl)-9,11-dimethyl-5,13-dioxo-4,12-dioxa-1(2,4)-thiazolacycloheptadecaphane-6,8-dien-14-yl)carbamate], the half-maximal inhibitory concentration (IC50) in series [1] (setting [5]) and in series [1] (setting [6]) was > 10000 nM each time.

Consider `CC(Br)=CC1Cc2nc(cs2)CCCC(NC(=O)OC(C)(C)C(Cl)(Cl)Cl)C(=O)OC(C)CC(C)=CC=CC(=O)O1` [MZ569a, 1,1,1-Trichloro-2-methylpropan-2-yl ((1^2Z,3S,6Z,8E,11S,14S)-3-((E)-2-bromoprop-1-en-1-yl)-9,11-dimethyl-5,13-dioxo-4,12-dioxa-1(2,4)-thiazolacycloheptadecaphane-6,8-dien-1^4-yl) carbamate], for which the IC50 in series [1] (setting [3]) and in series [1] (setting [4]) was > 10000 nM throughout.

Regarding `C/C(Br)=C\[C@@H]1Cc2nc(cs2)CCC[C@H](NC(=O)C(F)(F)F)C(=O)O[C@@H](C)C/C(C)=C/C=C\C(=O)O1` [MZ569b, N-((1^2Z,3S,6Z,8E,11S,14S)-3-((E)-2-Bromoprop-1-en-1-yl)-9,11-dimethyl-5,13-dioxo-4,12-dioxa-1 (2,4)-thiazolacycloheptadecaphane-6,8-dien-1^4-yl)-2,2,2-trifluoroacetamide], the 50% inhibitory concentration (IC50) in series [1] (setting [5]) and in series [1] (setting [6]) was > 10000 nM each time.

In the case of `CC(C=CC(C)=CC1Cc2nc(cs2)CCCC(NC(=O)OC(C)(C)C(Cl)(Cl)Cl)C(=O)OC(C)CC(C)=CC=CC(=O)O1)=CCN(C)C` [MZ576, 1,1,1-Trichloro-2-methylpropan-2-yl((1^2Z,3S,6Z,8E,11 S,14S)-3-((1E,3E,5E)-7-(dimethylamino)-2,5-dimethylhepta-1,3,5-trien-1-yl)-9,11-dimethyl-5,13-dioxo-4,12-dioxa-1 (2,4)-thiazolacycloheptadecaphane-6,8-dien-14-yl)carbamate], the half-inhibitory concentration (IC50) was determined as 6690 nM in series [1] (setting [3]) and 3200 nM in series [1] (setting [4]).

With `CC(/C=C/C(C)=C/[C@@H]1Cc2nc(cs2)CCC[C@H](N)C(=O)O[C@@H](C)C/C(C)=C/C=C\C(=O)O1)=C\CN(C)C` [MZ577, (12Z,3S,6Z,8E,11S,14S)-14-Amino-3-((1E,3E,5E)-7-(dimethylamino)-2,5-dimethylhepta-1,3,5-trien-1-yl)-9,11-dimethyl-4,12-dioxa-1(2,4)-thiazolacycloheptadecaphane-6,8-diene-5,13-dione], the IC50 in series [1] (setting [5]) was 6360 nM; in series [1] (setting [6]) it was 3010 nM.

With `CC(/C=C/C(C)=C/[C@@H]1Cc2nc(cs2)CCC[C@H](NC(=O)OC(C)(C)C)C(=O)O[C@@H](C)C/C(C)=C/C=C\C(=O)O1)=C\CN(C)C` [MZ578, tert-Butyl ((1^2Z,3S,6Z,8E,11S,14S)-3-((1E,3E,5E)-7-(dimethylamino)-2,5-dimethylhepta-1,3,5-trien-1-yl)-9,11-dimethyl-5,13-dioxo-4,12-dioxa-1(2,4)-thiazolacycloheptadecaphane-6,8-dien-14-yl) carbamate], the results for the IC50 in series [1] (setting [5]), in series [1] (setting [7]) and in series [1] (setting [6]) were 2010 nM, 8120 nM and 830 nM, respectively.

Regarding `CC(/C=C/C(C)=C/[C@@H]1Cc2nc(cs2)CCC[C@H](NC(=O)C(F)(F)F)C(=O)O[C@@H](C)C/C(C)=C/C=C\C(=O)O1)=C\CN(C)C` [MZ579, N-((1^2Z,3S,6Z,8E,11S,14S)-3-((1E,3E,5E)-7-(dimethylamino)-2,5-dimethylhepta-1,3,5-trien-1-yl)-9,11-dimethyl-5,13-dioxo-4,12-dioxa-1(2,4)-thiazolacycloheptadecaphane-6,8-dien-14-yl)-2,2,2-trifluoroacetamide], the values for the concentration for half-maximal inhibition (IC50) in series [1] (setting [5]), in series [1] (setting [7]) and in series [1] (setting [6]) were 1790 nM, 7180 nM and 550 nM, respectively.

For the compound `CC(=O)N[C@H]1CCCc2csc(n2)C[C@@H](/C=C(C)/C=C/C(C)=C/CN(C)C)OC(=O)/C=C\C=C(/C)C[C@H](C)OC1=O` [MZ623, N-((1^2Z,3S,6Z,8E,11S,14S)-3-((1E,3E,5E)-7-(dimethylamino)-2,5-dimethylhepta-1,3,5-trien-1-yl)-9,11-dimethyl-5,13-dioxo-4,12-dioxa-1(2,4)-thiazolacycloheptadecaphane-6,8-dien-14-yl) acetamide], the IC50 in series [1] (setting [5]) was 460 nM; in series [1] (setting [6]), 310 nM.

For `CC(/C=C/C(C)=C/[C@@H]1Cc2nc(cs2)CCC[C@H](NS(C)(=O)=O)C(=O)O[C@@H](C)C/C(C)=C/C=C\C(=O)O1)=C\CN(C)C` [MZ624, N-((1^2Z,3S,6Z,8E,11 S,14S)-3-((1E,3E,5E)-7-(dimethylamino)-2,5-dimethylhepta-1,3,5-trien-1-yl)-9,11-dimethyl-5,13-dioxo-4,12-dioxa-1(2,4)-thiazolacycloheptadecaphane-6,8-dien-14-yl) methanesulfonamide], the IC50 in series [1] (setting [5]) came out at 650 nM; in series [1] (setting [6]), 370 nM.

In the case of `CC(=O)N[C@@H]1CCCc2csc(n2)C[C@@H](/C=C(C)/C=C/C(C)=C/CN(C)C)OC(=O)/C=C\C=C(/C)C[C@H](C)OC1=O` [MZ757, N-((1^2Z,3S,6Z,8E,11S,14R)-3-((1E,3E,5E)-7-(dimethylamino)-2,5-dimethylhepta-1,3,5-trien-1-yl)-9,11-dimethyl-5,13-dioxo-4,12-dioxa-1(2,4)-thiazolacycloheptadecaphane-6,8-dien-14-yl) acetamide], the concentration for half-maximal inhibition (IC50) in series [1] (setting [5]) is 450 nM; in series [1] (setting [6]), < 50 nM.

For `CC(/C=C/C(C)=C/[C@@H]1Cc2nc(cs2)[C@@H](C)C[C@@H](N)CC(=O)O[C@@H](C)C/C(C)=C/C=C\C(=O)O1)=C\CN(C)C` [PatA, Pateamine A], the IC50 in series [1] (setting [5]) was 160 nM; in series [1] (setting [7]), 470 nM; in series [1] (setting [6]), 150 nM; in series [2], 0.27 nM.
